pIC50: −log10 of the molar value. Structures can show the parent of a compound that is named as a salt.

The target of one test is T1, human Nav1.8 (hNav1.8) ion channel (Homo sapiens, UniProt Q9Y5Y9).
T1 construct: expressed in transfected cells
T1 sequence (Q9Y5Y9 whole entry): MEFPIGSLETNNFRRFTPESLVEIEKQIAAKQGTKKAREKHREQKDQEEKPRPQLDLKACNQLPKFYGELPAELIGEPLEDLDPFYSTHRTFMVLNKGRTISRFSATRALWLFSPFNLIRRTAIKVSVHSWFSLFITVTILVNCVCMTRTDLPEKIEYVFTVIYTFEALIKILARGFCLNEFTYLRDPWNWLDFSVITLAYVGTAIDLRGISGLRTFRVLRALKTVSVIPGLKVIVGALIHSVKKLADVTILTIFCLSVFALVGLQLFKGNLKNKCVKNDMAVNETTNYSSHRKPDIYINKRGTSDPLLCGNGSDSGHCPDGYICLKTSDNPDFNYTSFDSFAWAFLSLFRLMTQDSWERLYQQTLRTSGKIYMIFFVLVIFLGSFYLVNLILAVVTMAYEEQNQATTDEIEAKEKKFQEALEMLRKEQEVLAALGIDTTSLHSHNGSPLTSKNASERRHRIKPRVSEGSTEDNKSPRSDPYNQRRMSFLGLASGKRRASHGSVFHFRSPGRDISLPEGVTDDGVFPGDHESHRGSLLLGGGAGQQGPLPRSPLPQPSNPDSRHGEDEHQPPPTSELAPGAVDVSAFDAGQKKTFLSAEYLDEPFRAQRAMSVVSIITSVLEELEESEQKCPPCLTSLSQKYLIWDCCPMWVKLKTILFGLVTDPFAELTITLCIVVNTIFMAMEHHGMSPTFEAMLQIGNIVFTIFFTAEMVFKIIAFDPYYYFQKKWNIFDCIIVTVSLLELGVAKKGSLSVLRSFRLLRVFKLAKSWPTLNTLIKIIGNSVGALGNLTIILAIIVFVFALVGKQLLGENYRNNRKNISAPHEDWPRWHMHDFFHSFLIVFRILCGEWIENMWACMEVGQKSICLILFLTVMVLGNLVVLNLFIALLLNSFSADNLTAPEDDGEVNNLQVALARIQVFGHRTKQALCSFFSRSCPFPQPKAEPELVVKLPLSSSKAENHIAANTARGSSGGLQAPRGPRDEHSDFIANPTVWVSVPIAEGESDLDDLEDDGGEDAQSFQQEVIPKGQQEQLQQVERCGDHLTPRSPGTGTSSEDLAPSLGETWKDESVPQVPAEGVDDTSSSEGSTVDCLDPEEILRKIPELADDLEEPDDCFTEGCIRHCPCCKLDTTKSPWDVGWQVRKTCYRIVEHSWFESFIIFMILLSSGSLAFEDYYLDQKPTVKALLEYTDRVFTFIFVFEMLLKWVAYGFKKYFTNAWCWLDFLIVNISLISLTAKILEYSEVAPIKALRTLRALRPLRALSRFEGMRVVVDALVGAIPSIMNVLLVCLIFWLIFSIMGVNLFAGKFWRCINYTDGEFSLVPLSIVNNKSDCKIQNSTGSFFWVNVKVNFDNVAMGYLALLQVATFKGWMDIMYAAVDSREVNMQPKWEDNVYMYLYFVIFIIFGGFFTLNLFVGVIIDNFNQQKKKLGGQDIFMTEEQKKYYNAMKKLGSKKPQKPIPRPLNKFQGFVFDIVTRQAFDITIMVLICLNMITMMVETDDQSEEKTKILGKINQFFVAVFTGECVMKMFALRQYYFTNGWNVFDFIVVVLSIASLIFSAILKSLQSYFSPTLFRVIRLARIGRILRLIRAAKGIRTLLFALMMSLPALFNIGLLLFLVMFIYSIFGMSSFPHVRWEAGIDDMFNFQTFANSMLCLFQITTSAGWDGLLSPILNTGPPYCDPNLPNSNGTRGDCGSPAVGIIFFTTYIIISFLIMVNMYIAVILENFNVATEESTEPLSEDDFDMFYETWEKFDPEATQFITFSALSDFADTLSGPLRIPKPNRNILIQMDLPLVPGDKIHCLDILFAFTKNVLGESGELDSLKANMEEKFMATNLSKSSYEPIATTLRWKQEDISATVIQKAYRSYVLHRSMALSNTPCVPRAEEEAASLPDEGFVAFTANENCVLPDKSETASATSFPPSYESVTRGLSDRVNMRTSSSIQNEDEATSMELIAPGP
Briefly: Inhibition of human Nav1.8 stably expressed in SH-SY-5Y cells (membrane potential dye fluorescence assay). The conditions noted are these: SH-SY-5Y hNav1.8 cells; FLIPR membrane potential dye; 10 μM pyrethroid, 250 nM TTX; test concentration range 100 μM-0.05 μM; read-out: hNav1.8 IC50. Type of test: cell-based.
As for `CC(c1ccccc1Cl)N1CC2CC1CN2C(=O)c1ccc(Oc2cccc(C#N)c2)cc1` (stereo not drawn) [Example 173, 3-(4-{5-[1-(2-Chloro-phenyl)-ethyl]-2,5-diaza-bicyclo[2.2.1]heptane-2-carbonyl}-phenoxy)-benzonitrile], the pIC50 (usually the IC50 on a negative log10 scale, so that one unit is a factor of ten) was 5.71.

Consider `CC(c1ccccc1Cl)N1CC2CC1CN2C(=O)c1ccc(Oc2cccc(C#N)c2)cc1` (stereo not drawn) [Example 174, 3-(4-{5-[1-(2-Chloro-phenyl)-ethyl]-2,5-diaza-bicyclo[2.2.1]heptane-2-carbonyl}-phenoxy)-benzonitrile], for which the pIC50 was 5.85.

On to `CC(c1ccccc1Cl)N1CC2CC1CN2C(=O)c1ccc(Oc2cccc(F)c2)cc1` (stereo not drawn) [Example 175, {5-[1-(2-Chloro-phenyl)-ethyl]-2,5-diaza-bicyclo[2.2.1]hept-2-yl}-[4-(3-fluoro-phenoxy)-phenyl]-methanone], for which the pIC50 was 6.19.

Turning to `CC(c1ccccc1Cl)N1CC2CC1CN2C(=O)c1ccc(Oc2ccc(F)cc2)c(F)c1` (stereo not drawn) [Example 178, {5-[1-(2-Chloro-phenyl)-ethyl]-2,5-diaza-bicyclo[2.2.1]hept-2-yl}-[3-fluoro-4-(4-fluoro-phenoxy)-phenyl]-methanone methanesulfonate salt], the pIC50 was 6.21.

Consider `CC(c1ccccc1Cl)N1CC2CC1CN2C(=O)c1ccc(Oc2ccc(F)cc2)c(F)c1` (stereo not drawn) [Example 179, {5-[1-(2-Chloro-phenyl)-ethyl]-2,5-diaza-bicyclo[2.2.1]hept-2-yl}-[3-fluoro-4-(4-fluoro-phenoxy)-phenyl]-methanone methanesulfonate salt], for which the pIC50 is 5.87.

For `CC(c1ccccn1)N1CC2CC1CN2C(=O)c1ccc(Oc2cccc(C#N)c2)cc1` (stereo not drawn) [Example 180, 3-{4-[5-(1-Pyridin-2-yl-ethyl)-2,5-diaza-bicyclo[2.2.1]heptane-2-carbonyl]-phenoxy}-benzonitrile], the pIC50 was 5.33.

Consider `CC(c1ccccn1)N1CC2CC1CN2C(=O)c1ccc(Oc2ccc(F)cc2)cc1` (stereo not drawn) [Example 181, [4-(4-Fluoro-phenoxy)-phenyl]-[5-(1-pyridin-2-yl-ethyl)-2,5-diaza-bicyclo[2.2.1]hept-2-yl]-methanone], for which the pIC50 is 5.00.

As to `CC(c1ccccc1Cl)N1CC2CC1CN2C(=O)Nc1ccc(Oc2ccc(F)cc2)nc1` (stereo not drawn) [Example 182, 5-[1-(2-Chloro-phenyl)-ethyl]-2,5-diaza-bicyclo[2.2.1]heptane-2-carboxylic acid [6-(4-fluoro-phenoxy)-pyridin-3-yl]-amide methanesulfonate salt], the negative logarithm of the IC50 (pIC50) was 6.57.

Still in this test, the particulars now being: hNav1.8 IC50, SH-SY-5Y hNav1.8 cells; FLIPR membrane potential dye; 10 μM pyrethroid, 250 nM TTX; test concentration range 100 μM-0.05 μM.
On to `Cc1ccccc1C(C)N1CC2CC1CN2C(=O)Cc1ccc(Oc2cccc(F)c2)cc1` (stereo not drawn) [Example 172, 2-[4-(3-Fluoro-phenoxy)-phenyl]-1-[5-(1-o-tolyl-ethyl)-2,5-diaza-bicyclo[2.2.1]hept-2-yl]-ethanone], for which the pIC50 was 6.15.

Source of the values: patent US20100204224A1, “AZACYCLIC COMPOUNDS AS INHIBITORS OF SENSORY NEURONE SPECIFIC SODIUM CHANNELS” (priority 2005, published 2010).
